Where a name gives a salt, the structure may show the parent alone. Read-outs that look alike come from different tables or passages of the source.
Assays:
[1] = molecular target: PI3Kδ (p110δ/p85α) Recombinant Human Protein (Homo sapiens (Human), UniProt O00329); assay: PI3Kδ Scintillation Proximity Assay; assay type: biochemical
Method in brief: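 Recombinant human p110δ/p85α (3.4 nM) with 20 μM PIP2 and 2 μM ATP plus [γ-33P]ATP, in 20 mM MOPS pH 6.7, 10 mM MgCl2, 5 mM DTT, 0.03% CHAPS, 2% DMSO; 120 min at room temperature. Product captured on WGA SPA beads, scintillation counted; IC50 from percent-of-control curves.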

[2] = tested on: Phosphorylated Ribosomal Protein S6 (RPS6); assay: THP-1 RPS6 ELISA Assay; assay type: cell-based, Human; details: THP-1 cells, read-out: PI3Kγ_THP1_RPS6_ELISA IC50
Method in brief: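 Serum-starved THP-1 cells were preincubated with a concentration range of compound for 2 h at 37 °C, then stimulated with 10 nM MCP-1 for 15 min. Phospho-RPS6 in lysates was quantified by ELISA at 450 nm. IC50 came from percent inhibition versus log inhibitor concentration.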

[3] = molecular target: PI3Kγ (p110γ) Recombinant Human Protein (Homo sapiens (Human), UniProt P48736); assay: PI3K-γ Scintillation Proximity Assay; assay type: biochemical; details: read-out: PI3Kγ IC50
Method in brief: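 Recombinant human p110γ assayed at room temperature in 20 mM MOPS pH 6.7, 10 mM MgCl2, 5 mM DTT, 0.03% CHAPS, 2% DMSO, with 20 μM PIP2 and 2 μM ATP plus [γ-33P]ATP. Product captured on WGA SPA beads overnight and counted; IC50 fitted from % of solvent-control activity versus log inhibitor concentration.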

PI3Kγ (p110γ) Recombinant Human Protein, sequence (P48736 whole entry): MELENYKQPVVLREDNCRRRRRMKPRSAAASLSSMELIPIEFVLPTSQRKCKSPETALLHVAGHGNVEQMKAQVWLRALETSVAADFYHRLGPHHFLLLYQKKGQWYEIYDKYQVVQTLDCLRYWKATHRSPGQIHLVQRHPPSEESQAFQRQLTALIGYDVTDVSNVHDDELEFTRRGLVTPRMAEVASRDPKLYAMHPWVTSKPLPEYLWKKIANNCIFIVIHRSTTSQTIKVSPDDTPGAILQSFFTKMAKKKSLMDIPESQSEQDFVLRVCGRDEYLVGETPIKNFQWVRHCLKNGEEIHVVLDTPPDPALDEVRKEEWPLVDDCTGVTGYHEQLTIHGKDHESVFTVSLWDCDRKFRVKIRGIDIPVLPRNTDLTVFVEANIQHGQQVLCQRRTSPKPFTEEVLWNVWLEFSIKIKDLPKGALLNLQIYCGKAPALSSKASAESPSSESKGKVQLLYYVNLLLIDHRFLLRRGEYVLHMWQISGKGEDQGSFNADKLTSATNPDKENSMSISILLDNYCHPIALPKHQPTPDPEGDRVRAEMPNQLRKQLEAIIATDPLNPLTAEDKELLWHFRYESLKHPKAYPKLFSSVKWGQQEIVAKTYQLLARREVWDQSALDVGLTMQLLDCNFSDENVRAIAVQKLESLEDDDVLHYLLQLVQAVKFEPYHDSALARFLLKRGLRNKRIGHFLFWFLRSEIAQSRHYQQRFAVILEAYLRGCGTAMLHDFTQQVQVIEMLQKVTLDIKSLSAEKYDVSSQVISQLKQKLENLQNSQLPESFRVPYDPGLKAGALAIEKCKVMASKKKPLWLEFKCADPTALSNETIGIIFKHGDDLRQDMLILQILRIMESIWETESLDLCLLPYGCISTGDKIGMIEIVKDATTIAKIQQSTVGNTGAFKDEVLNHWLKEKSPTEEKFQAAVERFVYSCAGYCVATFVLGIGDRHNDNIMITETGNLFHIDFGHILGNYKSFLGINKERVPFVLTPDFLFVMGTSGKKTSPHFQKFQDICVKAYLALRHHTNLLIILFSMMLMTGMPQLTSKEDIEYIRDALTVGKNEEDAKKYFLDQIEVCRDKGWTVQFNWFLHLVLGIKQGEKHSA
PI3Kδ (p110δ/p85α) Recombinant Human Protein, sequence (O00329 whole entry): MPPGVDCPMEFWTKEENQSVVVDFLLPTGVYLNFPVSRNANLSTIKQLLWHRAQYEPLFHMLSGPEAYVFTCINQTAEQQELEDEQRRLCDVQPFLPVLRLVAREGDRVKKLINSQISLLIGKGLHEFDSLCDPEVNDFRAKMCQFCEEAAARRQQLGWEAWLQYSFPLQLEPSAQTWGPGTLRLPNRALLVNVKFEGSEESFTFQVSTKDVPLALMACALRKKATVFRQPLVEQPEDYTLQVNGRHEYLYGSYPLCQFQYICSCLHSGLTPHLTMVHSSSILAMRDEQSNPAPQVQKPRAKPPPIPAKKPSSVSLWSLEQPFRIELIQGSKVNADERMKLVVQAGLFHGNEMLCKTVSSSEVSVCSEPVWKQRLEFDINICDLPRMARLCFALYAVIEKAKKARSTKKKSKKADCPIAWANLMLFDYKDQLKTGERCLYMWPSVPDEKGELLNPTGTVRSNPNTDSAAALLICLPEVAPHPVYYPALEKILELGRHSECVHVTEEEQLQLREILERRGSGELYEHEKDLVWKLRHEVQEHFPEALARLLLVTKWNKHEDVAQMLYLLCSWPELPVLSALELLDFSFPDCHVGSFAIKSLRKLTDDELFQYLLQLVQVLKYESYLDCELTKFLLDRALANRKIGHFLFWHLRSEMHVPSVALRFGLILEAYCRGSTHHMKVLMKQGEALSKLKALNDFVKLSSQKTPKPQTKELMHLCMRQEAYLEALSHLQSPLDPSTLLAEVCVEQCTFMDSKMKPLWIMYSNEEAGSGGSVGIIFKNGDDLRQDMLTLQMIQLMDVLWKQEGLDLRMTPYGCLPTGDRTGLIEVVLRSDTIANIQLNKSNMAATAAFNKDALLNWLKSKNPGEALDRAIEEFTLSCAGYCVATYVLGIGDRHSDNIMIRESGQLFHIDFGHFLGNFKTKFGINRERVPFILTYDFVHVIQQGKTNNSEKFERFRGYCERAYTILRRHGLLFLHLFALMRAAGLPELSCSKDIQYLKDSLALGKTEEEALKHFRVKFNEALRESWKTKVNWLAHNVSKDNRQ
PI3Kδ (p110δ/p85α) Recombinant Human Protein, sequence (P27986 whole entry partner): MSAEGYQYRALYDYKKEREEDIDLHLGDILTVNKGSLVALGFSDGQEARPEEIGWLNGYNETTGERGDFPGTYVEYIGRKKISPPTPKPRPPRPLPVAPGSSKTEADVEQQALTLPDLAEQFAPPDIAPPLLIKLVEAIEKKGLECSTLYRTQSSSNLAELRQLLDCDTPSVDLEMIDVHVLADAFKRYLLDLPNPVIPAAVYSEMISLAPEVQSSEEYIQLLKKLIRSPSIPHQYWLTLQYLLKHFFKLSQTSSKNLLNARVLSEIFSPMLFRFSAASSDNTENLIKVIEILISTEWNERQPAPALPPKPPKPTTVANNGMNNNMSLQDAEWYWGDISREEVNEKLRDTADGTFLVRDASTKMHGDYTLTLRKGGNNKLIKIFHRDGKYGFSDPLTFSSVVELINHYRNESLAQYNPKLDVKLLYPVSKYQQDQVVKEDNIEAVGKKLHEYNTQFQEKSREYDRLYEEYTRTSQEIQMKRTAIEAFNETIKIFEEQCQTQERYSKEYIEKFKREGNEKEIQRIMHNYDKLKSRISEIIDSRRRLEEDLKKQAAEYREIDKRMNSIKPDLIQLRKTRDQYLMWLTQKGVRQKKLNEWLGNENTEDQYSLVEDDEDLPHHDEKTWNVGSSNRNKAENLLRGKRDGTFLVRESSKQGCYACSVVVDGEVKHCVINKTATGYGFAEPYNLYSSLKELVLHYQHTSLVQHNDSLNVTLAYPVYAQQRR

IC50 [1]	IC50 ([2]; Homo sapiens)	IC50 [3]	Structure (SMILES)	IC50 [2]
100 to 500 nM	100 to 500 nM	< 100 nM	Cc1ccc(S(=O)(=O)N(C)[C@H]2CN(C)C[C@@H]2O)cc1-c1cnc2c(N)nc(C(F)(F)F)cn12 [Example 299, 3-(8-amino-6-(trifluoromethyl)imidazo[1,2-a]pyrazin-3-yl)-N-((3S,4S)-4-hydroxy-1-methylpyrrolidin-3-yl)-N,4-dimethylbenzenesulfonamide]	
100 to 500 nM	< 100 nM	< 100 nM	Cc1ccc(S(=O)(=O)NC23CC(CO)(C2)C3)cc1-c1cnc2c(N)nc(C(F)(F)F)cn12 [Example 274, 3-(8-Amino-6-(trifluoromethyl)imidazo[1,2-a]pyrazin-3-yl)-N-(3-(hydroxymethyl)bicyclo[1.1.1]pentan-1-yl)-4-methylbenzenesulfonamide trifluoroacetate salt]	
< 100 nM	100 to 500 nM	< 100 nM	Cc1ccc(S(=O)(=O)CC2(O)CCC2)cc1-c1cnc2c(N)nc(-c3ccncc3F)cn12 [Example 503, 1-(((3-(8-Amino-6-(3-fluoropyridin-4-yl)imidazo[1,2-a]pyrazin-3-yl)-4-methylphenyl)sulfonyl)methyl)cyclobutan-1-ol]	
100 to 500 nM	< 100 nM	< 100 nM	Cc1ccc(S(=O)(=O)NC23CC(C(C)(C)O)(C2)C3)cc1-c1cnc2c(N)nc(C(F)(F)F)cn12 [Example 282, 3-(8-Amino-6-(trifluoromethyl)imidazo[1,2-a]pyrazin-3-yl)-N-(3-(2-hydroxypropan-2-yl)bicyclo[1.1.1]pentan-1-yl)-4-methylbenzenesulfonamide trifluoroacetate salt]	
500 to 2000 nM	100 to 500 nM	< 100 nM	Cc1ccc(S(=O)(=O)N(CCC#N)C2CCCCC2)cc1-c1cnc2c(N)nc(C(F)(F)F)cn12 [Example 301, 3-(8-amino-6-(trifluoromethyl)imidazo[1,2-a]pyrazin-3-yl)-N-(2-cyanoethyl)-N-cyclohexyl-4-methylbenzenesulfonamide]	
< 100 nM	< 100 nM	< 100 nM	Cc1c(F)cc(S(=O)(=O)N[C@H]2CC[C@H](CC#N)OC2)cc1-c1cnc2c(N)nc(C(F)(F)F)nn12 [Example 466, 3-(4-Amino-2-(trifluoromethyl)imidazo[2,1-f][1,2,4]triazin-7-yl)-N-((3S,6R)-6-(cyanomethyl)tetrahydro-2H-pyran-3-yl)-5-fluoro-4-methylbenzenesulfonamide]	
100 to 500 nM	> 1000 nM	< 100 nM	Cc1ccc(S(=O)(=O)N[C@H]2C[C@H](O)C2)cc1-c1cnc2c(N)nccn12 [Example 54, 3-(8-Aminoimidazo[1,2-a]pyrazin-3-yl)-N-(trans-3-hydroxycyclobutyl)-4-methylbenzenesulfonamide]	
500 to 2000 nM		< 100 nM	COC(=O)NC12CC(NS(=O)(=O)c3ccc(C)c(-c4cnc5c(N)ncnn45)c3)(C1)C2 [Example 115, Methyl 3-(3-(4-aminoimidazo[1,2-f][1,2,4]triazin-7-yl)-4-methylphenylsulfonamido)bicyclo[1.1.1]pentan-1-ylcarbamate trifluoroacetate salt]	100 to 500 nM
100 to 500 nM	< 100 nM	< 100 nM	Cc1ccc(S(=O)(=O)NC23CC(CC#N)(C2)C3)cc1-c1cnc2c(N)nc(C(F)(F)F)cn12 [Example 276, 3-(8-Amino-6-(trifluoromethyl)imidazo[1,2-a]pyrazin-3-yl)-N-(3-(cyanomethyl)bicyclo[1.1.1]pentan-1-yl)-4-methylbenzenesulfonamide trifluoroacetate salt]	
500 to 2000 nM	100 to 500 nM	< 100 nM	Cc1cn2c(-c3cc(S(=O)(=O)N[C@@H]4CC[C@@H](C(C)(C)O)OC4)c(C)cc3C)cnc2c(N)n1 [Example 465, 5-(8-Amino-6-methylimidazo[1,2-a]pyrazin-3-yl)-N-((3R,6S)-6-(2-hydroxypropan-2-yl)tetrahydro-2H-pyran-3-yl)-2,4-dimethylbenzenesulfonamide]	
500 to 2000 nM	< 100 nM	< 100 nM	Cc1ccc(S(=O)(=O)N[C@H]2CC[C@H](O)CC2)cc1-c1cnc2c(N)c(Cl)ccn12 [Example 11, 3-(8-Amino-7-chloroimidazo[1,2-a]pyridin-3-yl)-N-(trans-4-hydroxycyclohexyl)-4-methylbenzenesulfonamide trifluoroacetate]	
100 to 500 nM	100 to 500 nM	< 100 nM	Cc1ccc(S(=O)(=O)N[C@H]2CC[C@H](O)CC2)cc1-c1cnc2c(N)c(-c3cnn(C)c3)ccn12 [Example 12, 3-[8-Amino-7-(1-methyl-1H-pyrazol-4-yl)imidazo[1,2-a]pyridin-3-yl]-N-(trans-4-hydroxycyclohexyl)-4-methylbenzenesulfonamide]	
500 to 2000 nM	> 1000 nM	< 100 nM	Cc1ncc(S(=O)(=O)NC23CCC(C#N)(C2)C3)cc1-c1cnc2c(N)nc(C(F)(F)F)cn12 [Example 257, 5-(8-amino-6-(trifluoromethyl)imidazo[1,2-a]pyrazin-3-yl)-N-(4-cyanobicyclo[2.1.1]hexan-1-yl)-6-methylpyridine-3-sulfonamide]	
< 100 nM	100 to 500 nM	< 100 nM	Cc1cn2c(-c3cc(S(=O)(=O)N[C@H]4CC[C@](C)(O)CC4)ccc3C)cnc2c(N)n1 [Example 505, 3-(8-Amino-6-methylimidazo[1,2-a]pyrazin-3-yl)-N-((1r,4r)-4-hydroxy-4-methylcyclohexyl)-4-methylbenzenesulfonamide]	
500 to 2000 nM	> 1000 nM	< 100 nM	Cc1ccc(S(=O)(=O)N[C@H]2CC[C@H](CO)OC2)cc1-c1cnc2c(N)nccn12 [Example 57, 3-(8-Aminoimidazo[1,2-a]pyrazin-3-yl)-N-[(3S,6R)-6-(hydroxymethyl)tetrahydro-2H-pyran-3-yl]-4-methylbenzenesulfonamide]	
100 to 500 nM	100 to 500 nM	< 100 nM	[2H]C([2H])([2H])c1nc(N)c2ncc(-c3cc(S(=O)(=O)NCC(C)(C)O)cc(F)c3C([2H])([2H])[2H])n2n1 [Example 469, 3-(4-Amino-2-(methyl-d3)imidazo[2,1-f][1,2,4]triazin-7-yl)-5-fluoro-N-(2-hydroxy-2-methylpropyl)-4-(methyl-d3)benzenesulfonamide]	
100 to 500 nM		< 100 nM	Cc1nc(N)c2ncc(-c3ccc(F)c(S(=O)(=O)NC45CCC(C#N)(C4)C5)c3)n2n1 [Example 387, 5-(4-Amino-2-methylimidazo[1,2-f][1,2,4]triazin-7-yl)-N-(4-cyanobicyclo[2.1.1]hexan-1-yl)-2-fluorobenzenesulfonamide trifluoroacetate salt]	< 100 nM
500 to 2000 nM	> 1000 nM	< 100 nM	CC(=O)N[C@H]1CC[C@H](NS(=O)(=O)c2ccc(C)c(-c3cnc4c(N)nccn34)c2)CC1 [Example 59, N-[trans-4-({[3-(8-Aminoimidazo[1,2-a]pyrazin-3-yl)-4-methylphenyl]sulfonyl}amino)cyclohexyl]acetamide]	
100 to 500 nM	100 to 500 nM	< 100 nM	O=C(O)C(F)(F)F.[2H]C([2H])([2H])c1ccc(S(=O)(=O)NC23CCC(CO)(C2)C3)cc1-c1cnc2c(N)nc(C(F)(F)F)cn12 [Example 390, 3-(8-Amino-6-(trifluoromethyl)imidazo[1,2-a]pyrazin-3-yl)-N-(4-(hydroxymethyl)bicyclo[2.1.1]hexan-1-yl)-4-(methyl-d3)benzenesulfonamide trifluoroacetate salt]	
100 to 500 nM	100 to 500 nM	< 100 nM	Cc1ccc(S(=O)(=O)NC2CC(F)(F)C2)cc1-c1cnc2c(N)ncnn12 [Example 132, 3-(4-aminoimidazo[2,1-f][1,2,4]triazin-7-yl)-N-(3,3-difluorocyclobutyl)-4-methylbenzenesulfonamide]	
100 to 500 nM	500 to 1000 nM	< 100 nM	Cc1nc2c(N)ncnn2c1-c1cccc(S(=O)(=O)NC23CCC(C#N)(C2)C3)c1 [Example 258, 3-(4-Amino-6-methylimidazo[2,1-f][1,2,4]triazin-7-yl)-N-(4-cyanobicyclo[2.1.1]hexan-1-yl)benzenesulfonamide trifluoroacetate salt]	

Structure (SMILES)	IC50 [1]	IC50 ([2]; Homo sapiens)	IC50 [3]	IC50 [2]
C[C@]1(O)CC[C@H](NS(=O)(=O)c2cc(-c3cnc4c(N)nc(-c5ccccc5F)cn34)ccc2F)CC1 [Example 421, 5-(8-amino-6-(2-fluorophenyl)imidazo[1,2-a]pyrazin-3-yl)-2-fluoro-N-((1r,4r)-4-hydroxy-4-methylcyclohexyl)benzenesulfonamide]	< 100 nM		< 100 nM	< 100 nM
Cc1ccc(S(=O)(=O)NC2CCOCC2)cc1-c1cnc2c(N)ncnn12 [Example 68, 3-(4-Aminoimidazo[2,1-f][1,2,4]triazin-7-yl)-4-methyl-N-(tetrahydro-2H-pyrazn-4-yl)benzenesulfonamide]	500 to 2000 nM		< 100 nM	500 to 1000 nM

— patent US10479795B2 (Incyte Corporation, priority 2016, dated 2019)
